# Measured values from patent publication US11285144B2, “Use of CDK8 inhibitors to treat diseases of inflammation and autoimmunity” (THE BROAD INSTITUTE, INC., priority 2016, dated 2022).
# “Also recorded” adds a separate entry of the source.
# How the values were obtained:
# R848-stimulated BMDCs [1] = assay: IL-10 mRNA levels in BMDCs following R848 stimulation; format: cell-based, mouse; conditions: pre-treatment, then R848 stimulation
# Experimental: FIG. 5—Cellular activities of the IL-10 hit BRD6989. […] (d) Effect of BRD6989 on IL-10 production in human DCs stimulated with R848 (each point corresponds to mean±S.D.; n=3 biological replicates from 1 independent experiment using cells derived from 1 donor). (e) Chemical structure of the pan-SIK inhibitor HG-9-91-01. (f) Effect of pre-treating BMDCs with HG-9-91-01 (0.5 μM) or BRD6989 (5 μM) on IL-10 mRNA levels following stimulation with R848 (each point corresponds to mean±S.D.; n=4 biological replicates from 1 independent experiment; *, P<0.05; ***, P<0.001 using unpaired, two-tailed Student's t test). Data from all panels is representative of at least 2 independent experiments.
# Based on its ability to selectively potentiate IL-10 production by a mechanism that appears temporally distinct from CREB activation, BRD6989 was prioritized for MOA studies.
# [2] = system: Zymosan A-stimulated BMDCs; assay: Cytokine production by Zymosan A-stimulated BMDCs; format: cell-based, mouse; conditions: zymosan A-stimulated BMDCs
# Text: Towards the goal of identifying new mechanisms of IL-10 regulation, 59,346 small molecules were screened for the ability to enhance IL-10 production by activated bone marrow-derived dendritic cells (BMDCs) using a high-throughput assay developed previously (Sundberg et al., PNAS 111:12468-12473, 2014). Compounds were derived from both commercial collections and structurally and skeletally diverse libraries prepared by diversity-oriented synthesis (DOS). More than 60 hit compounds were identified that reproducibly enhance IL-10 production in a concentration-dependent manner (Table 1). Three distinct chemotypes were prioritized for follow-up based on potency and an initial analysis of structure-activity relationship (SAR) with respect to core scaffold, stereochemistry and side chains (FIG. 2a).
# (§1) The pyridinyl tetrahydroquinoline BRD6989 (10) emerged as a prioritized hit in the screen (FIG. 2a and Table 2). […] Thus, BRD6989 enhances IL-10 production in activated human and murine macrophages and dendritic cells by a mechanism that appears most pronounced following stimulation of toll-like receptors-7 (TLR7) and TLR8 by R848.
# tubulin = assay: Tubulin polymerization, cell-free assay; format: biochemical
# Text: FIG. 4—DOS-derived IL-10 hit BRD0326 perturbs microtubule dynamics. (a) Chemical structure of BRD0326. […] (c) BRD0326's IL-10 enhancing activity depends on its stereochemistry (EC50's=mean of 2 independent experiments). (d) Transcriptional responses elicited by BRD0326 correlate with those induced by small molecule modulators of microtubule dynamics.
# R848-stimulated BMDCs [3] = assay: Cytokine production by R848-stimulated BMDCs; format: cell-based, mouse
# Text: as §1
# (§2) Pre-treatment with these CDK8/19 inhibitors recapitulated the IL-10 potentiating activity of BRD6989 in both BMDCs (FIG. 9b) along with human DCs derived from two independent donors in the context of R848 stimulation (FIGS. 9c and 10a).
# [4] = system: human, monocyte-derived DCs; assay: IL-10 production in human monocyte-derived DCs stimulated with R848; format: cell-based
# Text: as §1, §2
# [5] = system: BMDCs stimulated with R848 or Zymosan A; assay: Co-treatment of BMDCs with T-5224, cytokine production; format: cell-based, mouse; conditions: T-5224 100 μM
# Experimental: FIG. 13—Modulation of c-Jun/AP-1 links CDK8 inhibition to enhanced IL-10 production. (a) CDK8 responsive signaling pathways in activated BMDMs as identified by the highly parallel reporter gene assay TF-Seq. Reporter data is integrated for time points between 15 min 4 hr from 1 independent experiment. Dashed lines correspond to FDR<0.05 as corrected by Benjamin-Hochberg testing. (b) Relative to all highly expressed genes, JunB binding sites are enriched among the subset of genes induced by CDK8 inhibition (see Online Methods). […] Data is representative of 2 independent experiments. […] Data is representative of 2 independent experiments. […] CpG, synthetic CpG-containing oligonucleotide; FLA, flagellin A; LPS, lipopolysaccharide; MDP, muramyldipeptide; Pam3cys, synthetic triacylated lipoprotein; poly(I:C), polyinosinic-polycytidylic acid; SeV, Sendai virus; TDB, trehalose-6,6-dibehenate.
# FIG. 15—CDK8 inhibition enhances AP-1 activity during innate immune activation. (a) Time course of AP-1 reporter activity in BMDMs pre-treated with dCA (0.1 μM) or BRD6989 (5 μM) prior to stimulation with the indicated viruses or microbial ligands for the indicated time points (each point corresponds to TF-Seq reporter data derived from 1 independent experiment). […] Data is from 1 independent experiment. (c) Chemical structure of the c-Fos/AP-1 inhibitor T-5224. […] Data in panels (c,d) are representative of 2 independent experiments. CpG, synthetic CpG-containing oligonucleotide; FLA, flagellin; LPS, lipopolysaccharide; MDP, muramyldipeptide; Pam3cys, synthetic triacylated lipoprotein; Poly(I:C), polyinosinic-polycytidylic acid; SeV, Sendai virus; TDB, trehalose-6,6-dibehenate.
# Given the presence of an AP1 consensus motif in IL-10 and evidence that potentiation of MAP kinase signaling can increase IL-10 production (Saraiva et al., Nat Rev Immunol 10:170-81, 2010; Wang et al., Nat Commun 5:3479, 2014; Na et al., Science Signaling 8:2015), it was hypothesized that increased AP-1 activity resulting from reduced c-Jun Ser243 phosphorylation may mediate activation of IL-10 following CDK8 inhibition.
smiles,measurement,setting,value
"COc1ccc(N(C(=O)Nc2c(C)cccc2C)c2cc(Nc3ccc(N4CCN(C)CC4)cc3)ncn2)c(OC)c1 [HG-9-91-01, reference compound]",IL-10 mRNA levels,R848-stimulated BMDCs [1],elevate Il-10 mRNA immediately following microbial stimulation without greatly extending the duration of this response
CS(=O)(=O)N1[C@H](C#N)[C@H](c2ccc(C#Cc3cccc(F)c3)cc2)[C@H]1CO [BRD0326],IL-10 production,[2],potentiates IL-10 production by Zymosan A-stimulated BMDCs to a similar degree as PGE2
same,tubulin / microtubule polymerization,tubulin,suppressed microtubule polymerization; also recorded: suppresses tubulin polymerization
Cn1ncc2cc(-c3cnc(N)c(Cl)c3N3CCC4(CCNC4=O)CC3)ccc21 [CCT251921],IL-10 production,R848-stimulated BMDCs [3],recapitulate the IL-10 enhancing activity of BRD6989
same,IL-10 production,[4],recapitulate IL-10 potentiation by BRD6989
CN(C)C/C=C/C(=O)Nc1ccc(C(=O)Nc2cccc(Nc3ncc(Cl)c(-c4c[nH]c5ccccc45)n3)c2)cc1 [THZ-1],IL-10 production,R848-stimulated BMDCs [3],not enhanced
O=C(O)CCc1cc(C(=O)c2ccc(OC3CCCC3)cc2O)ccc1OCc1ccc2c(=O)[nH]oc2c1 [T-5224],production of IL-6 or TNFα on co-incubation with dCA,[5]; R848,does not affect production of IL-6 or TNFα
same,IL-10 production on co-treatment with dCA,[5]; R848 or Zymosan A,suppressed IL-10 production; also recorded: suppresses the IL-10 enhancing activity of dCA
same,IL-10 increase induced by HG-9-91-01 on co-treatment,[5]; Zymosan A,did not affect; also recorded: does not affect up-regulation of IL-10 or suppression of IL-6
